Data from US20130261058A1, “ACCELERATION OF WOUND HEALING BY GROWTH HORMONE RELEASING HORMONE AND ITS AGONISTS” (University of Miami, priority 2010, published 2013).
“Also recorded” adds a separate entry of the source.

What was measured:
SV1 = experiment: Immunoblot analysis of SV1 expression in MEFs; assay type: cell-based, mouse; conditions: 500 nM, 24 h
Description: hGHRH(1-29)NH2 was obtained from Sigma. Agonist JI-38 was synthesized as reported (24, 26). The peptides were dissolved in phosphate buffered saline (PBS) at the indicated concentrations. Controls contained solvent alone. Fibroblasts were isolated using standard methods and maintained in Dulbecco's Modified Eagle Medium containing 10% FBS and antibiotics/antimycotics. For all experiments, primary fibroblasts of less than 10 passages old were used. For Western blot analysis, antibodies for αSMA, FAK and actin were obtained from Sigma while for SV1; the antibody 2317/5 was used (35). The same antibody was also used for the immunohistochemistry as previously described (36). Histology was performed on standard 5 μm sections of paraffin embedded material stained with hematoxylin/eosin. βGal-staining was performed in lung fibroblasts, isolated from transgenic mice bearing an αSMA-beta galactosidase reporter transgene. After treatment with the peptides for 24 hours, cells were washed (three times each for 5 min) with 0.1M PBS (pH 7.4), and fixed with 0.05% glutaraldehyde in PBS, for 10 min at room temperature. […]
It was evaluated whether MEFs express the receptor for GHRH SV1. Primary MEFs were exposed to GHRH and agonistic GHRH analog JI-38 (24, 26) at 100 nM and 500 nM for 24 h and SV1 expression was then assessed by immunoblot analysis.

[1] = system: α-smooth muscle actin (αSMA); experiment: Immunoblot analysis of αSMA expression in MEFs; assay type: cell-based, mouse
Description: (§1) hGHRH(1-29)NH2 was obtained from Sigma. Agonist JI-38 was synthesized as reported (24, 26). The peptides were dissolved in phosphate buffered saline (PBS) at the indicated concentrations. Controls contained solvent alone. Fibroblasts were isolated using standard methods and maintained in Dulbecco's Modified Eagle Medium containing 10% FBS and antibiotics/antimycotics. For all experiments, primary fibroblasts of less than 10 passages old were used. For Western blot analysis, antibodies for αSMA, FAK and actin were obtained from Sigma while for SV1; the antibody 2317/5 was used (35). The same antibody was also used for the immunohistochemistry as previously described (36). Histology was performed on standard 5 μm sections of paraffin embedded material stained with hematoxylin/eosin. βGal-staining was performed in lung fibroblasts, isolated from transgenic mice bearing an αSMA-beta galactosidase reporter transgene. After treatment with the peptides for 24 hours, cells were washed (three times each for 5 min) with 0.1M PBS (pH 7.4), and fixed with 0.05% glutaraldehyde in PBS, for 10 min at room temperature. After three more washes, cells were stained with 1 mg/ml of 5-bromo-4-chloro-3indonyl β-D-galactopyranoside, 5 mM potassium ferrocyanide, 5 mM potassium ferricyanide and 2 mM MgCl2) overnight at 37° C.
αSMA is an actin isoform that confers tensional and contractile activity (25,26). Typically SMA is selectively expressed in smooth muscle cells of adult animals, but is induced in activated fibroblasts (myofibroblasts) during wound healing, within the stroma of many tumors, and in general under conditions where there is extensive tissue reorganization and regeneration (27,28). […] Of interest, this effect was significant at a concentration of 100 nM but not 500 nM of either peptide. A similar pattern of expression was found for focal adhesion kinase (FAK), an enzyme which plays a role in cell migration and invasion (29). The activation of αSMA in fibroblasts following GHRH treatment was confirmed in lung fibroblasts isolated from transgenic mice bearing a reporter β-galactosidase (βGal) transgene under the regulation of the αSMA promoter/enhancer (30). Cells from these mice display βGal positivity when αSMA expression is activated (30).

[2] = system: focal adhesion kinase (FAK); experiment: Immunoblot analysis of FAK expression in MEFs; assay type: cell-based, mouse; conditions: 100 nM, 24 h, Western blot
Description: as §1
(§2) αSMA is an actin isoform that confers tensional and contractile activity (25,26). […]

[3] = system: 4 mm circular skin wounds; experiment: Histology, fibroblast counting and Van Gieson staining of 4 mm skin wounds; assay type: in vivo, mice; conditions: for content of fibroblasts in wounds (histology) compared to controls: day 5, 100 nM twice daily; for increase of fibroblast density in the wound area: vs controls, direct counting, 100 nM twice daily, p<0.05, FIG. 6
Description: FIG. 6. Quantification of fibroblast content in 4 mm circular skin wounds in mice exposed to GHRH or GHRH agonist JI-38 twice per day at 100 nM on day 5 and 8. Fibroblast number was assessed by direct counting of fibroblast in at least 3 random optic fields in the wound areas under light microscope and expressed relative to the fibroblast content in the controls on day 5. Data are expressed as mean±SEM. *, p<0.05.
as §1
(§3) Wild-type mice of mixed C57BL6/FVB genetic background, originally obtained by Jackson Laboratories were maintained in our laboratory. Care of animals was in accord with University of Athens Institutional guidelines. The reporter αSMA-βGal mice have been described elsewhere (32). Wound healing assay in vivo was performed after administration of anesthesia (100 mg/kg ketamine, 10 mg/kg xylazine). Mice were shaved in the back, wiped with ethanol and wounds were cut using a biopsy punch (4 mm). The skin was grabbed at dorsal midline and placed over a cardboard backing on one side of the skin fold. The biopsy punch was pressed until both layers of the skin were punched and the cardboard was reached. Four wounds were performed per mouse, two on each side of the dorsal midline, at equal distance, so that the tension of the skin would be equal all over the mouse back and would not influence the contraction of the wounds. The experimental protocol was reviewed and approved by the University of Athens Animal Experimentation Committee. GHRH and JI-38 (100 nM) were applied twice daily in a volume of approximately 50 μl. At least 10 wounds for each of the control (vehicle, PBS), GHRH or JI-38 were observed. In order to avoid study variation due to the wound healing variability between different experimental animals, each mouse was its own control. For wound area measurements digital pictures of wounds were analyzed by the ImageJ (N1H) software. Wound size was monitored over time relative to a 4 mm diameter circular paper cutout placed next to the wound as previously described (38). For histology, 4-6 wounds per time point per group were analyzed. Similar results were obtained among different mice and histological sections for each group and representative are shown.
Tissue sections from mice wounds were de-paraffinized and rehydrated in distilled H2O. These sections were then stained in orcein (Sigma) 1% w/v in 96% ethanol for 30 min at room temperature and washed in distilled H2O. […]

MEFs [4] = experiment: Transwell-based migration assay (8 μm pore) of MEFs; assay type: cell-based, mouse; conditions: for increase of migration through 8 μm-pore transwells compared to controls / stimulation of cell migration through transwells compared to controls: 5 days exposure; for increase of migration through 8 μm-pore transwells compared to controls: p<0.05; for stimulation of cell migration through transwells compared to controls: not significant
Description: (§4) The rate of cell proliferation was evaluated by the Trypan blue exclusion assay under inverted microscope. Cell migration was performed by the “scratch” assay as described, exposing cells to the peptides for 18 h (33). For the transwell-based migration assay, MEFs were seeded on 8 μm pore size transwells (Corning) and after 5 days exposure to the peptides at the indicated concentration, cell number was evaluated in the bottom compartment. All in vitro experiments were performed in triplicate and similar results were obtained.
(§5) Subsequently MEFs were subjected to scratch wound migration assays in vitro, following exposure to GHRH and 31-38 at 100 nM. […] A considerable, notwithstanding not significant, stimulation of cell migration, by about 2-fold as compared to the controls, was also evidenced at 500 nM GHRH or 31-38. In order to rule out the possibility that the results of these two migration assays were simply due to the increased proliferation, MEFs were exposed to the peptide analogs and cell proliferation was evaluated.

MEFs [5] = experiment: Cell proliferation by Trypan blue exclusion assay in MEFs; assay type: cell-based, mouse
Description: as §4, §5

MEFs [6] = experiment: Scratch wound migration assay of MEFs; assay type: cell-based, mouse; conditions: 100 nM, 18 h
Description: as §4, §5

[7] = system: 4 mm circular skin wounds; experiment: Wound healing assay in vivo, 4 mm skin biopsy wounds, wound area; conditions: mice; for wound healing compared to controls: 100 nM applied twice daily to the wound
Description: as §3
In order to evaluate the effect of GHRH on wound healing in vivo, wild type mice were subjected to 4 mm skin biopsies and the healing of the inflicted wounds in the presence or absence of GHRH and JI-38 at 100 nM was observed daily. In order to avoid variation in the wound healing process between different experimental animals, a control wound was always included in each mouse, thus permitting paired analysis.

[8] = system: αSMA promoter-βGal reporter transgene; experiment: βGal staining of lung fibroblasts from αSMA promoter-βGal reporter transgenic mice; assay type: cell-based; conditions: 100 nM and 500 nM, 24 h
Description: as §1, §2

pituitary GHRH receptor = conditions: subcutaneous administration; cited from earlier work
subcutaneous peptidases = conditions: cited from earlier work

FAK expression [2] | Substance | SMA expression ([1]; 100 nM, 24 h, immunoblot) | SMA expression ([1]; 500 nM, compared with 100 nM) | content of fibroblasts in wounds (histology) compared to controls [3] | collagen fibers in the lamina propria, Van Gieson staining ([3]; day 8, 100 nM twice daily) | histology of epidermis, dermis and stroma ([3]; day 8, 100 nM twice daily) | increase of fibroblast density in the wound area [3] | migration of MEFs in 8 μm-pore transwell system (figure legend) (MEFs [4]; 100 nM) | increase of migration through 8 μm-pore transwells compared to controls (MEFs [4]; 100 nM) | stimulation of cell migration through transwells compared to controls (MEFs [4]; 500 nM) | proliferation of MEFs (MEFs [5]; 100 nM) | proliferation of MEFs (MEFs [5]; 500 nM) | migration of MEFs in scratch assay compared to controls (MEFs [6]) | wound healing compared to controls [7] | day on which acceleration of wound healing was first evidenced ([7]; 100 nM twice daily) | time to nearly complete healing ([7]; 100 nM twice daily) | also measured
induced | hGHRH(1-29)NH2 | stimulated; also recorded: induced | less pronounced | increased content of fibroblasts; also recorded: considerable increase | nearly normally arranged collagen fibers | almost normal with a diffuse mild inflammatory infiltration | about 80% | significantly increased | about 2.5 fold | about 2 fold | stimulated proliferation | no considerable effect | considerably increased; also recorded: increased migration | considerable acceleration | 3 days | about 10 days post-incision | levels of SV1 expression (SV1): upregulated; reformation of the covering epithelium ([3]; day 8, 100 nM twice daily): almost complete; potency histologically and macroscopically at equimolar concentrations ([7]; 100 nM twice daily): more potent than 31-38
induced | [Dat^1, Gln^8, Orn^12,21, Abu^15, Nle^27, Asp^28, Agm^29]hGH-RH(1-29)NH2 [JI-38] | stimulated; also recorded: induced | less pronounced | to a lesser extent; also recorded: considerable increase | could not be seen | dense and rich in fibroblasts | ~40% | significantly increased | ~3 fold | about 2 fold | no considerable effect | no considerable effect | considerably increased | considerable acceleration | 3 days | about 10 days post-incision | increase in fraction of βGal-positive (αSMA-lacZ positive) cells compared to untreated controls ([8]; listed as 31-38): about 3 fold; increase in fraction of βGal-positive (αSMA-lacZ positive) cells compared to untreated controls ([8]; listed as 51-38): ~3 fold; potency in transwell-based migration assay relative to GHRH (MEFs [4]): more potent than GHRH; migration of MEFs in 8 μm-pore transwell system (figure legend) (MEFs [4]; 500 nM): significantly increased; potency relative to GHRH in in vivo growth hormone release assay (pituitary GHRH receptor): much more potent than GHRH; migration of MEFs in scratch assay compared to controls (MEFs [6]; listed as 51-38): increased migration; stability against subcutaneous peptidases (subcutaneous peptidases): resistance to degradation by subcutaneous peptidases
